{
  "source": "patent US20220160842A1",
  "about": "“METHOD OF TREATING INFECTIVE ENDOCARDITIS” (priority 2019, published 2022)",
  "experiment_in_all_cases": "MIC by broth microdilution",
  "key": {"S. lugdunensis": {"tested_on": "S. lugdunensis", "format": "cell-based, Staphylococcus lugdunensis", "method": "(§1) Minimal inhibitory concentrations (MICs) of exebacase against staphylococci were determined by broth microdilution (BMD) using a nonstandard antimicrobial susceptibility testing (AST) medium comprised of cation-adjusted Mueller Hinton broth (caMHB) supplemented with horse serum (Sigma Aldrich) and dithiothreitol (DTT; Sigma Aldrich) to final concentrations of 25% and 0.5 mM, respectively. This medium, referred to as caMHB-HSD, is approved for use in exebacase AST by the Clinical and Laboratory Standards Institute (CLSI) (CLSI. 2017, Jan. 16-17. AST Subcommittee Working Group Meetings and Plenary. AST Meeting Files & Resources, clsi.org/education/microbiology/ast/ast-meeting-files-resources/. Additional supplementation with 2.5% lysed red blood cells (Remel™, ThermoFisher) was included for analyses of streptococcal isolates, as recommended by CLSI. See CLSI, 2015. Methods for Dilution Antimicrobial Susceptibility Tests for Bacteria That Grow Aerobically, 10th Edition. Clinical and Laboratory Standards Institute, Wayne, Pa.\n(§2) Daptomycin (Sigma Aldrich) and vancomycin hydrochloride (Sigma Aldrich) were tested following the reference BMD method for each. See CLSI. 2015. Methods for Dilution Antimicrobial Susceptibility Tests for Bacteria That Grow Aerobically, 10th Edition. Clinical and Laboratory Standards Institute, Wayne, Pa."}, "S. capitis": {"tested_on": "S. capitis", "format": "cell-based, Staphylococcus capitis", "method": "as §1, §2"}, "S. anginosus": {"tested_on": "S. anginosus", "format": "cell-based, Streptococcus anginosus", "method": "as §1, §2"}, "S. mitis": {"tested_on": "S. mitis", "format": "cell-based, Streptococcus mitis", "method": "as §1, §2"}, "S. pyogenes": {"tested_on": "S. pyogenes", "format": "cell-based, Streptococcus pyogenes", "method": "as §1, §2"}, "S. mutans": {"tested_on": "S. mutans", "format": "cell-based, Streptococcus mutans", "method": "as §1, §2"}, "S. sanguinis": {"tested_on": "S. sanguinis", "format": "cell-based, Streptococcus sanguinis", "method": "as §1, §2"}, "S. gordonii": {"tested_on": "S. gordonii", "format": "cell-based, Streptococcus gordonii", "method": "as §1, §2"}, "S. salivarius": {"tested_on": "S. salivarius", "format": "cell-based, Streptococcus salivarius", "method": "as §1, §2"}, "S. dysgalactiae": {"tested_on": "S. dysgalactiae", "format": "cell-based, Streptococcus dysgalactiae", "method": "as §1, §2"}, "S. gallolyticus": {"tested_on": "S. gallolyticus", "format": "cell-based, Streptococcus gallolyticus", "method": "as §1, §2"}, "E. faecalis": {"tested_on": "E. faecalis", "format": "cell-based, Enterococcus faecalis", "method": "as §1, §2"}, "S. aureus (MSSA)": {"tested_on": "S. aureus (MSSA)", "format": "cell-based, Staphylococcus aureus", "method": "as §1, §2"}, "S. aureus (MRSA)": {"tested_on": "S. aureus (MRSA)", "format": "cell-based, Staphylococcus aureus", "method": "as §1, §2"}, "all staphylococci tested": {"tested_on": "all staphylococci tested", "format": "cell-based", "method": "as §2"}, "S. oralis": {"tested_on": "S. oralis", "format": "cell-based, Streptococcus oralis", "method": "as §1, §2"}, "S. pneumoniae": {"tested_on": "S. pneumoniae", "format": "cell-based, Streptococcus pneumoniae", "method": "as §1, §2"}, "S. haemolyticus": {"tested_on": "S. haemolyticus", "format": "cell-based, Staphylococcus haemolyticus", "method": "as §1, §2"}, "S. agalactiae": {"tested_on": "S. agalactiae", "format": "cell-based, Streptococcus agalactiae", "method": "as §1, §2"}, "S. warneri": {"tested_on": "S. warneri", "format": "cell-based, Staphylococcus warneri", "method": "as §1, §2"}},
  "note": "Where a name gives a salt, the structure may show the parent alone.",
  "data": [
    {"smiles": "CN[C@H](CC(C)C)C(=O)N[C@H]1C(=O)N[C@@H](CC(N)=O)C(=O)N[C@H]2C(=O)N[C@H]3C(=O)N[C@H](C(=O)N[C@H](C(=O)O)c4cc(O)cc(O)c4-c4cc3ccc4O)[C@H](O)c3ccc(c(Cl)c3)Oc3cc2cc(c3O[C@@H]2O[C@H](CO)[C@@H](O)[C@H](O)[C@H]2O[C@H]2C[C@](C)(N)[C@H](O)[C@H](C)O2)Oc2ccc(cc2Cl)[C@H]1O", "note": "[VAN, vancomycin hydrochloride]", "values": [
      {"measurement": "MIC Range", "setting": "S. lugdunensis; S. lugdunensis, N=49", "value": "0.5 to 2", "unit": "µg/mL"},
      {"measurement": "MIC50", "setting": "S. lugdunensis; Staphylococcus lugdunensis", "value": 1, "unit": "µg/mL"},
      {"measurement": "MIC90", "setting": "S. lugdunensis; Staphylococcus lugdunensis", "value": 1, "unit": "µg/mL"},
      {"measurement": "MIC Range", "setting": "S. capitis; S. capitis, N=13", "value": "0.5 to 2", "unit": "µg/mL"},
      {"measurement": "MIC50", "setting": "S. capitis; Staphylococcus capitis", "value": 1, "unit": "µg/mL"},
      {"measurement": "MIC90", "setting": "S. capitis; Staphylococcus capitis", "value": 1, "unit": "µg/mL"},
      {"measurement": "MIC Range", "setting": "S. anginosus; S. anginosus (viridans), N=10", "value": "0.5 to 1", "unit": "µg/mL"},
      {"measurement": "MIC50", "setting": "S. anginosus; Streptococcus anginosus", "value": 0.5, "unit": "µg/mL"},
      {"measurement": "MIC90", "setting": "S. anginosus; Streptococcus anginosus", "value": 1, "unit": "µg/mL"},
      {"measurement": "MIC Range", "setting": "S. mitis; S. mitis (viridans), N=18", "value": "0.25 to 0.5", "unit": "µg/mL"},
      {"measurement": "MIC50", "setting": "S. mitis; Streptococcus mitis", "value": 0.5, "unit": "µg/mL"},
      {"measurement": "MIC90", "setting": "S. mitis; Streptococcus mitis", "value": 0.5, "unit": "µg/mL"},
      {"measurement": "MIC Range", "setting": "S. pyogenes; S. pyogenes (group A), N=100", "value": "0.25 to 0.5", "unit": "µg/mL"},
      {"measurement": "MIC50", "setting": "S. pyogenes; Streptococcus pyogenes", "value": 0.5, "unit": "µg/mL"},
      {"measurement": "MIC90", "setting": "S. pyogenes; Streptococcus pyogenes", "value": 0.5, "unit": "µg/mL"},
      {"measurement": "MIC Range", "setting": "S. mutans; S. mutans (viridans), N=22", "value": "0.25 to 1", "unit": "µg/mL"},
      {"measurement": "MIC50", "setting": "S. mutans; Streptococcus mutans", "value": 1, "unit": "µg/mL"},
      {"measurement": "MIC90", "setting": "S. mutans; Streptococcus mutans", "value": 1, "unit": "µg/mL"},
      {"measurement": "MIC Range", "setting": "S. sanguinis; S. sanguinis (viridans), N=15", "value": "0.5 to 2", "unit": "µg/mL"},
      {"measurement": "MIC50", "setting": "S. sanguinis; Streptococcus sanguinis", "value": 0.5, "unit": "µg/mL"},
      {"measurement": "MIC90", "setting": "S. sanguinis; Streptococcus sanguinis", "value": 0.5, "unit": "µg/mL"},
      {"measurement": "MIC Range", "setting": "S. gordonii; S. gordonii (viridans), N=11", "value": "0.5 to 1", "unit": "µg/mL"},
      {"measurement": "MIC50", "setting": "S. gordonii; Streptococcus gordonii", "value": 0.5, "unit": "µg/mL"},
      {"measurement": "MIC90", "setting": "S. gordonii; Streptococcus gordonii", "value": 1, "unit": "µg/mL"},
      {"measurement": "MIC Range", "setting": "S. salivarius; S. salivarius (viridans), N=12", "value": "0.25 to 0.5", "unit": "µg/mL"},
      {"measurement": "MIC50", "setting": "S. salivarius; Streptococcus salivarius", "value": 0.5, "unit": "µg/mL"},
      {"measurement": "MIC90", "setting": "S. salivarius; Streptococcus salivarius", "value": 0.5, "unit": "µg/mL"},
      {"measurement": "MIC Range", "setting": "S. dysgalactiae; S. dysgalactiae (group G), N=22", "value": "0.25 to 1", "unit": "µg/mL"},
      {"measurement": "MIC50", "setting": "S. dysgalactiae; Streptococcus dysgalactiae", "value": 0.5, "unit": "µg/mL"},
      {"measurement": "MIC90", "setting": "S. dysgalactiae; Streptococcus dysgalactiae", "value": 0.5, "unit": "µg/mL"},
      {"measurement": "MIC Range", "setting": "S. gallolyticus; S. gallolyticus (bovis), N=19", "value": "0.25 to 0.5", "unit": "µg/mL"},
      {"measurement": "MIC50", "setting": "S. gallolyticus; Streptococcus gallolyticus", "value": 0.25, "unit": "µg/mL"},
      {"measurement": "MIC90", "setting": "S. gallolyticus; Streptococcus gallolyticus", "value": 0.5, "unit": "µg/mL"},
      {"measurement": "MIC Range", "setting": "E. faecalis; E. faecalis (formerly group D), N=18", "value": "0.5 to 2", "unit": "µg/mL"},
      {"measurement": "MIC50", "setting": "E. faecalis; Enterococcus faecalis", "value": 1, "unit": "µg/mL"},
      {"measurement": "MIC90", "setting": "E. faecalis; Enterococcus faecalis", "value": 2, "unit": "µg/mL"},
      {"measurement": "MIC Range", "setting": "S. aureus (MSSA); S. aureus (MSSA), N=73", "value": "0.5 to 1", "unit": "µg/mL"},
      {"measurement": "MIC50", "setting": "S. aureus (MSSA); Staphylococcus aureus, MSSA", "value": 1, "unit": "µg/mL"},
      {"measurement": "MIC90", "setting": "S. aureus (MSSA); Staphylococcus aureus, MSSA", "value": 1, "unit": "µg/mL"},
      {"measurement": "MIC Range", "setting": "S. aureus (MRSA); S. aureus (MRSA), N=74", "value": "1 to 2", "unit": "µg/mL"},
      {"measurement": "MIC50", "setting": "S. aureus (MRSA); Staphylococcus aureus, MRSA", "value": 1, "unit": "µg/mL"},
      {"measurement": "MIC90", "setting": "S. aureus (MRSA); Staphylococcus aureus, MRSA", "value": 1, "unit": "µg/mL"},
      {"measurement": "MIC Range", "setting": "all staphylococci tested", "value": "0.5 to 4", "unit": "µg/mL"},
      {"measurement": "MIC Range", "setting": "S. oralis; S. oralis (viridans), N=15", "value": "0.5 to 1", "unit": "µg/mL"},
      {"measurement": "MIC50", "setting": "S. oralis; Streptococcus oralis", "value": 0.5, "unit": "µg/mL"},
      {"measurement": "MIC90", "setting": "S. oralis; Streptococcus oralis", "value": 1, "unit": "µg/mL"},
      {"measurement": "MIC Range", "setting": "S. pneumoniae; S. pneumoniae, N=59", "value": "0.25 to 0.5", "unit": "µg/mL"},
      {"measurement": "MIC50", "setting": "S. pneumoniae; Streptococcus pneumoniae", "value": 0.25, "unit": "µg/mL"},
      {"measurement": "MIC90", "setting": "S. pneumoniae; Streptococcus pneumoniae", "value": 0.5, "unit": "µg/mL"},
      {"measurement": "MIC Range", "setting": "S. haemolyticus; S. haemolyticus, N=36", "value": "0.5 to 4", "unit": "µg/mL"},
      {"measurement": "MIC50", "setting": "S. haemolyticus; Staphylococcus haemolyticus", "value": 1, "unit": "µg/mL"},
      {"measurement": "MIC90", "setting": "S. haemolyticus; Staphylococcus haemolyticus", "value": 2, "unit": "µg/mL"},
      {"measurement": "MIC Range", "setting": "S. agalactiae; S. agalactiae (group B), N=97", "value": "0.25 to 0.5", "unit": "µg/mL"},
      {"measurement": "MIC50", "setting": "S. agalactiae; Streptococcus agalactiae", "value": 0.5, "unit": "µg/mL"},
      {"measurement": "MIC90", "setting": "S. agalactiae; Streptococcus agalactiae", "value": 0.5, "unit": "µg/mL"},
      {"measurement": "MIC Range", "setting": "S. warneri; S. warneri, N=23", "value": "0.25 to 2", "unit": "µg/mL"},
      {"measurement": "MIC50", "setting": "S. warneri; Staphylococcus warneri", "value": 1, "unit": "µg/mL"},
      {"measurement": "MIC90", "setting": "S. warneri; Staphylococcus warneri", "value": 2, "unit": "µg/mL"}
    ]}
  ]
}
